Data: patent publication US8277777B2, “Compound having affinity for amyloid” (Nihon Medi-Physics Co., Ltd., priority 2006, dated 2012)
Read-outs that look alike come from different tables or passages of the source.

Experiments:
[1] = partition coefficient based on the octanol extraction method; format: physicochemical; settings: octanol / 10 mmol/L phosphate buffer (pH 7.4), radioactivity
Description: Partition coefficients based on the octanol extraction method (hereinafter referred to as log Poctanol) were measured, which are generally used as an indicator of permeability of compounds through the blood-brain barrier (hereinafter referred to as BBB).
To 2 mL of octanol, 10 μL of a solution containing Compound 4 (Example 5) and 2 mL of a 10 mmol/L phosphate buffer (pH 7.4) were added and stirred for 30 seconds. After the mixture was centrifuged (2000 rpm×60 min.) with a low-speed centrifuge (model: […] CT4D manufactured by Hitachi Koki Co., Ltd.), the octanol layer and the water layer were sampled each in an amount of 1 mL, and subjected to measurement of radioactivity with an autowell gamma system (manufactured by Aloka, Type: ARC-301B). Using the obtained radioactivity, log Poctanol was calculated in accordance with the equation (2).

[2] = transferability into brain and clearance; settings: rats, intravenous injection
Description: Using Compound 4, a time course change of radioactive accumulation in brain of male Wistar rats (7-week old) was measured.
The rats were sacrificed by bleeding from abdominal artery, and brains were removed and subjected to measurement of radioactivity (hereinafter referred to as A in this Example) with an autowell gamma system (Type: ARC-301B manufactured by Aloka Co., Ltd.) and further subjected to measurement of mass of brains 2, 5, 30 and 60 minutes after the injection. Also, radioactivity (hereinafter referred to as B in this Example) of 0.05 mL of a 1000-fold diluted solution of the injected solution was measured in the same manner as above. Using these measurement results, radioactive distributions per unit weight of brain (% ID/g) at the respective time points were calculated in accordance with the following formula (5). Three animals were used for experiment at the respective time points.

[3] = biological target: T1, intracerebral amyloid (aggregated Aβ1-42 injected into amygdaloid nucleus) (Homo sapiens, UniProt P05067); test: confirmation of imaging of amyloid in brain (autoradiogram of brain slice); format: in vivo, male Wistar rat; settings: rat, tail vein, brain removed 30 minutes after the injection
T1 construct: dissolving Aβ1-42 (Wako Pure Chemical Industries, Ltd.) in a phosphate buffer (pH 7.4); purchased Wako Pure Chemical Industries, Ltd
Description: The following experiment was carried out in order to examine whether amyloid in brain can be imaged by the compound of the present invention.
(1) A 1 mg/mL suspension of aggregated Aβ (hereinafter referred to as amyloid suspension in this Example) was obtained by dissolving Aβ1-42 (Wako Pure Chemical Industries, Ltd.) in a phosphate buffer (pH 7.4), followed by shaking at 37° C. for 72 hours.
(2) 2.5 μL (corresponding to […]) of the amyloid suspension was injected into an amygdaloid nucleus on one side of a male Wistar rat (7-week old). As a control, 2.5 μL of a phosphate buffered physiological saline solution (pH 7.4) was injected into an amygdaloid nucleus on the other side of the rat. The rats were examined 3 days after the injection of the amyloid suspension and the phosphate buffered physiological saline solution.
(3) Compound 4 was dissolved in a 10 mg/mL ascorbic acid-containing physiological saline solution to obtain a sample solution (84 MBq/mL in radioactivity concentration). This solution was injected into the rat through the tail vein (dosage: 0.5 mL, dosed radioactivity: 42 MBq equivalent).
(4) Brain was removed 30 minutes after the injection to prepare a brain slice of 10 μm in thickness with a microtome (type: CM3050S, manufactured by LEICA). […]

[4] = biological target: T2, amyloid (aggregated Aβ1-40) (Homo sapiens, UniProt P05067); test: in vitro amyloid binding test (inhibition of [125I]3′-I-BTA-0 binding); settings: [125I]3′-I-BTA-0 400 pmol/L, amyloid 1 μmol/L, 0.1% BSA phosphate buffer pH 7.4, 22°C, 3 hours
T2 construct: purchased Peptide Institute, INC
Description: The resulting samples were placed in each well (about 0.3 mL in volume) of a 96-well microplate.
The measured radioactivity level was defined as the background radioactivity level, and used in the calculation of the inhibition ratio (hereinafter referred to as BG).
(9) Using the radioactivity levels measured above in (7) and (8), the inhibition ratio was determined by the following formula (1).
A graph in which values converted by probit transformation from the obtained inhibition ratios were plotted relative to logarithms of concentrations of compounds for evaluation was prepared to obtain an approximate straight line by the least square method. Using the line, the concentration of each compound for evaluation was determined, at which the radioactivity level is half of the level of the sample free from each compound for evaluation, and was defined as a 50% inhibition concentration of each compound (hereinafter referred to as IC50% value).

[5] = system: Salmonella typhimurium TA98; test: reverse mutation test (Ames test), TA98; format: cell-based
Description: (§1) In order to examine mutagenicity of Compound 1, Compound 2 and Compound 3, reverse mutation test using Salmonella typhimurium TA98 and TA100 (hereinafter referred to as Ames test) was conducted.
(§2) The test was conducted without addition of S9mix and with addition of S9mix. Dimethylsulfoxide was used as a negative control. A positive control was 2-(2-furyl)-3-(5-nitro-2-furyl)acrylamide in case S9mix was not added, and 2-aminoanthracene in case S9 mix was added.
(§3) The amount of each sample to be added to the test plate was 7 dosages (geometric ratio 4) with the maximum dose being 1250 μg/plate for Compound 1, and 7 dosages (geometric ratio 3) with the maximum dose being […] for Compound 2 and Compound 3. After a sample to be examined and a strain (TA98 or TA100), or a sample to be examined, S9mix and the strain were mixed together, the mixture was multilayered using soft agar on a medium of a test plate, and then incubated at 37° C. for 48 hours.

[6] = system: Salmonella typhimurium TA100; test: reverse mutation test (Ames test), TA100; format: cell-based
Description: as §1, §2, §3

[7] = system: Salmonella typhimurium TA98 and TA100; test: Ames test, overall judgment; format: cell-based; settings: regardless of addition of S9mix
Description: as §1, §2, §3

[8] = partition coefficient based on HPLC; format: physicochemical; settings: mobile phase 50 mM triethylamine phosphate (pH 7.2)/acetonitrile=40/60, formula (4)
Description: The partition coefficient by HPLC (hereinafter referred to as log PHPLC) was measured by the following method.
First, compounds for evaluation shown in Table 5 were dissolved at a concentration of 1 mg/mL in methanol containing 10% dimethylsulfoxide to prepare sample solutions. One μL of the sample solution was subjected to HPLC analysis under the following conditions to determine the elution time (tO) of the solvent and the elution time (tR) of each compound.
Column: Prodigy ODS (3) (product name; manufactured by phenomenex; size: 4.6×250 mm)
Mobile phase: a mixed solution of 50 mM triethylamine phosphate (pH 7.2)/acetonitrile=40/60
Detector: ultraviolet visible absorptiometer (detection wavelength: 282 nm)
Using the obtained tO and tR, the retention factor (hereinafter referred to as K′HPLC value) of each compound for evaluation was determined according to the calculation formula (3). K′HPLC=(tR−t0)/t0 (3) […]
Using K′HPLC obtained for each compound for evaluation, the log PHPLC value of each compound for evaluation was determined according to the above calculation formula (4).

[9] = [125I]-labeled, normal mice, cited from earlier work; for transfer into brain: 2 minutes after administration
amyloid = settings: [125I]-labeled; cited from earlier work
[10] = [11C]-labeled, rats; cited from earlier work
[11] = TA98, without addition of S9mix
[12] = TA100, without addition of S9mix

T2 sequence (P05067 672-711 limits assumed): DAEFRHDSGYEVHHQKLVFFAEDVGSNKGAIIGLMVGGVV
T1 sequence (P05067 672-713): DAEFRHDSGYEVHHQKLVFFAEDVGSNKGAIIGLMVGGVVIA

## 2-[4′-(3″-[^18F]fluoropropoxy)phenyl]-6-methoxyimidazo[1,2-a]pyridine [Compound 4]
[1]
  logPoctanol value: 1.8
[2]; after 2 min.
  Radioactive concentration per unit weight in brain: 1.36 % ID/g
[2]; after 5 min.
  Radioactive concentration per unit weight in brain: 0.93 % ID/g
[2]; after 30 min.
  Radioactive concentration per unit weight in brain: 0.23 % ID/g
[2]; after 60 min.
  Radioactive concentration per unit weight in brain: 0.13 % ID/g
[3]
  accumulation of radioactivity on intracerebral amyloid: possesses a property of accumulating on intracerebral amyloid

## COc1ccc2nc(-c3ccc(OCCCF)cc3)cn2c1 [Compound 1, 2-[4′-(3″-fluoropropoxy)phenyl]-6-methoxyimidazo[1,2-a]pyridine]
[4]
  IC50: 1.1 nM
[5]; TA98, with addition of S9mix
  Mutagenicity: Negative
[5]; [11]
  Mutagenicity: Negative
[6]; TA100, with addition of S9mix
  Mutagenicity: Negative
[6]; [12]
  Mutagenicity: Negative
[7]
  Ames test judgment: negative

## Oc1ccc2nc(-c3ccc(OCCCF)cc3)cn2c1 [Compound 2, 2-[4′-(3″-fluoropropoxy)phenyl]-6-hydroxyimidazo[1,2-a]pyridine]
[4]
  IC50: 30.5 nM
[5]; TA98, with addition of S9mix
  Mutagenicity: Negative
[5]; [11]
  Mutagenicity: Negative
[6]; TA100, with addition of S9mix
  Mutagenicity: Negative
[6]; [12]
  Mutagenicity: Negative
[7]
  Ames test judgment: negative

## FCCCOc1ccc(-c2cn3ccccc3n2)cc1 [Compound 3, 2-[4′-(3″-fluoropropoxy)phenyl]imidazo[1,2-a]pyridine]
[4]
  IC50: 36.6 nM
[8]; read-out: logPHPLC value
  chromatographic logP: 1.7
[5]; TA98, with addition of S9mix
  Mutagenicity: Negative
[5]; [11]
  Mutagenicity: Negative
[6]; TA100, with addition of S9mix
  Mutagenicity: Negative
[6]; [12]
  Mutagenicity: Negative
[7]
  Ames test judgment: negative

## Nc1c(/N=N/c2ccc(-c3ccc(/N=N/c4cc(S(=O)(=O)O)c5ccccc5c4N)cc3)cc2)cc(S(=O)(=O)O)c2ccccc12 [Congo Red, reference compound]
[4]
  IC50: > 1000 nM

## CN(C)c1ccc(-c2nc3ccc(I)cc3o2)cc1 [IBOX, 6-iodo-2-[4′-(N,N-dimethylamino)phenyl]benzoxazole]
[9]
  transfer into brain: transferred into brain
  clearance from normal tissues: insufficient in clearance from normal tissues

## CN(C)c1ccc(-c2cn3cc(I)ccc3n2)cc1 [IMPY, 6-iodo-2-[4′-(N,N-dimethylamino)phenyl]imidazo[1,2-a]pyridine]
[8]
  logPHPLC value: 2.1
amyloid
  clearance from normal tissues: rapid clearance from normal tissues
  transfer to brain and accumulation at amyloid after administration: transferring to brain and accumulating at amyloid

## CNc1ccc(/C=C/c2ccc(O)cc2)cc1 [SB-13, (E)-4-methylamino-4′-hydroxystilbene]
[10]
  clearance from normal tissues: it cannot be said that the clearance is sufficiently fast

## CN(C)c1ccc(-c2nc3ccc(I)cc3s2)cc1 [TZDM, 6-iodo-2-[4′-(N,N-dimethylamino)phenyl]benzothiazole]
[9]
  transfer into brain: transferred into brain
  clearance from normal tissues: insufficient in clearance from normal tissues

## CN(C)c1ccc(-c2cn3cc([123I])ccc3n2)cc1 [[^123I]-IMPY, reference compound]
[1]
  logPoctanol value: 2.1
[2]; after 2 min.
  Radioactive concentration per unit weight in brain: 1.02 % ID/g
[2]; after 5 min.
  Radioactive concentration per unit weight in brain: 0.99 % ID/g
[2]; after 30 min.
  Radioactive concentration per unit weight in brain: 0.20 % ID/g
[2]; after 60 min.
  Radioactive concentration per unit weight in brain: 0.08 % ID/g

## CN(C)c1ccc(/C=C/c2ccc(I)cc2)cc1 [m-I-SB, (E)-4-dimethylamino-4′-iodostilbene]
[9]
  transfer into brain: transferred into brain
  clearance from normal tissues: insufficient in clearance from normal tissues
